Data taken from patent publication US12590118B2, “Salt and crystal form of steroid derivative regulator” (Shanghai Hansoh Biomedical Co., Ltd., priority 2019, dated 2026).

What was measured:
ICR mice = assay: Forced swimming model in mice; assay type: in vivo; settings: for Mean (immobility, %): floating time/240 s; for immobility time during the latter four minutes compared with that of the model group: forced swimming, ICR mice
Summary of the method: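 Male ICR mice (25-35 g), 12 per group, dosed intragastrically at brain Tmax with 10 mg/kg or 5 mg/kg p.o. in 0.5% CMC-Na + 1% Tween 80. Forced swim 0.5-1 h post-dose for 6 min in 25-26° C. water, 18 cm deep. Immobility over last 4 min, given as floating time percentage of 240 s.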

GABA-A receptor = assay: 35S-TBPS binding assay (GABAA receptor binding ability assay); design: species or system Sprague-Dawley rat; settings: rat cerebral cortex cell membrane, 5 μM GABA, 2 nM 35S-TBPS; read-out: IC50 on inhibiting the TBPS binding activity, 35S-TBPS bindng assay
Summary of the method: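 Male Sprague-Dawley rat cerebral cortex membranes in PBS, preincubated with compound (1% DMSO, 8-point 3-fold series) 5 min at 25° C, then GABA 5 μM final 5 min, then 2 nM 35S-TBPS for 20 h at 4° C. Bound radioactivity filtered on PEI-treated GF/C and counted. % inhibition relative to DMSO and 10 μM P026-2 controls; IC50 from 4-parameter fit.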

Structure (SMILES)	Mean (immobility, %) (ICR mice; dose 10 mpk p.o.)	immobility time during the latter four minutes compared with that of the model group (ICR mice)	IC50 (GABA-A receptor)	Mean (immobility, s) (ICR mice; dose 10 mpk p.o., latter four minutes of 6 min swim)
C[C@@]1(O)CC[C@H]2[C@H](CC[C@@H]3[C@@H]2CC[C@@]2(C)[C@H]3[C@@H]3C[C@@H]3[C@@H]2C(=O)Cn2ccc(C#N)n2)C1 [Example 2, 1-(2-((2R,4aS,4bR,6aS,7S,7aS,8aR,8bR,8cR,10aR)-2-Hydroxy-2,6a-dimethyloctadecahydrocyclopropa[4,5]cyclopenta[1,2-a]phenanthren-7-yl)-2-oxoethyl)-1H-pyrazole-3-carbonitrile]	28.50%	very significantly different	14.9 nM	
C[C@@H]1C[C@H](C(=O)Cn2ccc(C#N)n2)[C@@]2(C)CC[C@H]3[C@@H](CC[C@@H]4C[C@](C)(O)CC[C@@H]43)[C@H]12 [Example 40, 1-(2-((3R,5R,8R,9R,10S,13S,14S,15R,17S)-3-Hydroxy-3,13,15-trimethylhexadecahydro-1H-cyclopenta[a]phenanthren-17-yl)-2-oxoethyl)-1H-pyrazole-3-carbonitrile]	35.30%	very significantly different	8.2 nM	84.90 s
